{"source": "patent US7547718B2", "about": "“Substituted imidazoles” (Pfizer Limited, priority 2006, dated 2009)", "data": [{"test_system": "Rhipicephalus sanguineus (brown dog tick)", "assay": "In vitro tick assay (Rhip. Funct.)", "details": "unfed R. sanguineus in precoated glass vials; lowest dose at which all five ticks were seen moving; observed at 24, 48 and 72 hours", "excerpt": "Application of octopamine agonists to acarids for example, ticks, causes distinct behavioural changes compared to untreated control ticks. Treated ticks become agitated and move constantly, this prevents ticks attaching and feeding on a host animal to which the compound has been applied. Normal behaviour of ticks is to go into stasis when all other external stimuli are removed. Agitation and movement can be measured in vitro in the laboratory to predict efficacy and potency in vivo.\nThe assay was run using unfed Rhipicephalus sanguineus (brown dog tick) and precoated glass vials with an inner surface area of 34.5 cm^2. Each compound was tested in duplicate.\nCompound (345 μg) was dissolved in isopropyl alcohol (500 μl) and delivered to each vial. The vials were placed on a tilting roller in a fume hood for 2 hours to allow the isopropyl alcohol to evaporate giving a compound concentration for each vial of 10 μg/cm^2. Five R. sanguineus (male and female) were added to each coated vial and the vial sealed with a firm wad of cotton wool. Vials were then kept, undisturbed, on the bench at room temperature. Observation and recordings of activity were taken at 24, 48 and 72 hours after addition of ticks to the vials. The ED100 value was determined as the lowest dose at which all five ticks were seen moving around inside the vial.", "values": [{"molecule": "Cc1cccc(C(C)c2nccn2COC(=O)CC(C)C)c1C", "note": "(centres unmarked) [Example 68, {2-[1-(2,3-Dimethylphenyl)ethyl]-1H-imidazol-1-yl}methyl 3-methyl butanoate]", "Rhip. Funct. ED100": "0.03 mg/cm^2"}, {"molecule": "Cc1cccc(C(C)c2nccn2COC(=O)OCCC(C)C)c1C", "note": "(centres unmarked) [Example 139, {2-[1-(2,3-Dimethylphenyl)ethyl]-1H-imidazol-1-yl}methyl 3-methyl butyl carbonate]", "Rhip. Funct. ED100": "<=0.03 mg/cm^2"}, {"molecule": "Cc1cccc(C(C)c2nccn2COC(=O)OC2CCC2)c1C", "note": "(centres unmarked) [Example 141, Cyclobutyl{2-[1-(2,3-dimethylphenyl)ethyl]-1H-imidazol-1-yl}methyl carbonate]", "Rhip. Funct. ED100": "0.03 mg/cm^2"}, {"molecule": "Cc1cccc(C(C)c2nccn2COC(=O)NCCc2ccc(Cl)cc2Cl)c1C", "note": "(centres unmarked) [Example 148, {2-[1-(2,3-Dimethylphenyl)ethyl]-1H-imidazol-1-yl}methyl[2-(2,4-dichlorophenyl)ethyl]carbamate]", "Rhip. Funct. ED100": ">1 mg/cm^2"}, {"molecule": "CCC(CC)COC(=O)n1ccnc1[C@@H](C)c1cccc(C)c1C", "note": "[Example 233, 2-Ethyl butyl 2-[(1S)-1-(2,3-dimethylphenyl)ethyl]-1H-imidazole-1-carboxylate]", "Rhip. Funct. ED100": "<=10 mg/cm^2"}, {"molecule": "CCC(C)C(C)COC(=O)n1ccnc1[C@@H](C)c1cccc(C)c1C", "note": "(stereo partly drawn) [Example 253, 2,3-Dimethyl pentyl 2-[(1S)-1-(2,3-dimethylphenyl)ethyl]-1H-imidazole-1-carboxylate]", "Rhip. Funct. ED100": "0.1 mg/cm^2"}, {"molecule": "Cc1cccc([C@H](C)c2nccn2C(=O)OCc2c(F)c(F)c(F)c(F)c2F)c1C", "note": "[Example 270, Pentafluorobenzyl 2-[(1S)-1-(2,3-dimethylphenyl)ethyl]-1H -imidazole-1-carboxylate]", "Rhip. Funct. ED100": "<=10 mg/cm^2"}, {"molecule": "Cc1cccc([C@H](C)c2nccn2C(=O)OCc2c(C)c(C)c(C)c(C)c2C)c1C", "note": "[Example 294, Pentamethylbenzyl 2-[(1S)-1-(2,3-dimethylphenyl)ethyl]-1H -imidazole-1-carboxylate]", "Rhip. Funct. ED100": ">0.03 mg/cm^2"}]}]}
